# In patent US20050208139A1 (Ascend Therapeutics, Inc., priority 2004, published 2005):
# Tests used:
# [1] = system: normal and cancerous breast cells; conditions: in vitro; cited from earlier work
# [2] = system: estrogen receptors; conditions: in vitro; cited from earlier work
# [3] = Effects of pH on isomerization at 40° C. (Example 5); format: physicochemical
# [4] = Initial E/Z 37/63, Buffer pH 2.2, Final pH 4, Day
# [5] = Initial E/Z 37/63, Buffer pH 2.2, Final pH 4, Day 8
# [6] = Initial E/Z 37/63, Buffer pH 2.2, Final pH 4, Mo. 1
# [7] = Initial E/Z 37/63, Buffer pH 2.2, Final pH 4, Mo. 2
# [8] = Initial E/Z 37/63, Buffer pH 2.2, Final pH 4, Mo. 3
# [9] = Initial E/Z 37/63, Buffer pH 4, Final pH 6, Day
# [10] = Initial E/Z 37/63, Buffer pH 4, Final pH 6, Day 8
# [11] = Initial E/Z 37/63, Buffer pH 4, Final pH 6, Mo. 1
# [12] = Initial E/Z 37/63, Buffer pH 4, Final pH 6, Mo. 2
# [13] = Initial E/Z 37/63, Buffer pH 4, Final pH 6, Mo. 3
# [14] = Initial E/Z 37/63, Buffer pH 4, Final pH 6, Time 0
# [15] = Initial E/Z 37/63, Buffer pH 6, Final pH 7, Day
# [16] = Initial E/Z 37/63, Buffer pH 6, Final pH 7, Day 8
# [17] = Initial E/Z 37/63, Buffer pH 6, Final pH 7, Mo. 1
# [18] = Initial E/Z 37/63, Buffer pH 6, Final pH 7, Mo. 2
# [19] = Initial E/Z 37/63, Buffer pH 6, Final pH 7, Mo. 3
# [20] = Initial E/Z 37/63, Buffer pH 6, Final pH 7, Time 0
# [21] = Initial E/Z 37/63, Buffer pH 8, Final pH 9, Day
# [22] = Initial E/Z 37/63, Buffer pH 8, Final pH 9, Day 8
# [23] = Initial E/Z 37/63, Buffer pH 8, Final pH 9, Mo. 1
# [24] = Initial E/Z 37/63, Buffer pH 8, Final pH 9, Mo. 2
# [25] = Initial E/Z 37/63, Buffer pH 8, Final pH 9, Mo. 3
# [26] = Initial E/Z 37/63, Buffer pH 8, Final pH 9, Time 0
# [27] = Initial E/Z 37/63, Buffer pH 10, Final pH 12, Day
# [28] = Initial E/Z 37/63, Buffer pH 10, Final pH 12, Day 8
# [29] = Initial E/Z 37/63, Buffer pH 10, Final pH 12, Mo. 1
# [30] = Initial E/Z 37/63, Buffer pH 10, Final pH 12, Mo. 2
# [31] = Initial E/Z 37/63, Buffer pH 10, Final pH 12, Mo. 3
# [32] = Initial E/Z 37/63, Buffer pH 10, Final pH 12, Time 0
# [33] = Initial E/Z 100/0, Buffer pH 2.2, Final pH 4, Day
# [34] = Initial E/Z 100/0, Buffer pH 2.2, Final pH 4, Day 8
# [35] = Initial E/Z 100/0, Buffer pH 2.2, Final pH 4, Mo. 1
# [36] = Initial E/Z 100/0, Buffer pH 2.2, Final pH 4, Mo. 2
# [37] = Initial E/Z 100/0, Buffer pH 2.2, Final pH 4, Mo. 3
# [38] = Initial E/Z 100/0, Buffer pH 4, Final pH 6, Day
# [39] = Initial E/Z 100/0, Buffer pH 4, Final pH 6, Day 8
# [40] = Initial E/Z 100/0, Buffer pH 4, Final pH 6, Mo. 1
# [41] = Initial E/Z 100/0, Buffer pH 4, Final pH 6, Mo. 2
# [42] = Initial E/Z 100/0, Buffer pH 4, Final pH 6, Mo. 3
# [43] = Initial E/Z 100/0, Buffer pH 4, Final pH 6, Time 0
# [44] = Initial E/Z 100/0, Buffer pH 6, Final pH 7, Day
# [45] = Initial E/Z 100/0, Buffer pH 6, Final pH 7, Day 8
# [46] = Initial E/Z 100/0, Buffer pH 6, Final pH 7, Mo. 1
# [47] = Initial E/Z 100/0, Buffer pH 6, Final pH 7, Mo. 2
# [48] = Initial E/Z 100/0, Buffer pH 6, Final pH 7, Mo. 3
# [49] = Initial E/Z 100/0, Buffer pH 6, Final pH 7, Time 0
# [50] = Initial E/Z 100/0, Buffer pH 8, Final pH 9, Day
# [51] = Initial E/Z 100/0, Buffer pH 8, Final pH 9, Day 8
# [52] = Initial E/Z 100/0, Buffer pH 8, Final pH 9, Mo. 1
# [53] = Initial E/Z 100/0, Buffer pH 8, Final pH 9, Mo. 2
# [54] = Initial E/Z 100/0, Buffer pH 8, Final pH 9, Mo. 3
# [55] = Initial E/Z 100/0, Buffer pH 8, Final pH 9, Time 0
# [56] = Initial E/Z 100/0, Buffer pH 10, Final pH 12, Day
# [57] = Initial E/Z 100/0, Buffer pH 10, Final pH 12, Day 8
# [58] = Initial E/Z 100/0, Buffer pH 10, Final pH 12, Mo. 1
# [59] = Initial E/Z 100/0, Buffer pH 10, Final pH 12, Mo. 2
# [60] = Initial E/Z 100/0, Buffer pH 10, Final pH 12, Mo. 3
# [61] = Initial E/Z 100/0, Buffer pH 10, Final pH 12, Time 0
structure (smiles),measurement,setting,value
"CCC(=C(c1ccc(O)cc1)c1ccc(OCCN(C)C)cc1)c1ccccc1 [4-hydroxy tamoxifen, 1-[4-(2-N-dimethylaminoethoxy)phenyl]-1-(4-hydroxyphenyl)-2-phenylbut-1-ene]",growth of both normal and cancerous breast cells,[1],inhibits the growth
same,"potency as measured by binding affinity to estrogen receptors, compared with tamoxifen",[2],more potency than tamoxifen
same,effect of pH on the equilibration process,[3],Low and high pH speed the equilibration process
same,% E,[3]; [4],48.5%
same,% Z,[3]; [4],51.5%
same,% E,[3]; [5],52.5%
same,% Z,[3]; [5],47.5%
same,% E,[3]; [6],48.2%
same,% Z,[3]; [6],51.8%
same,% E,[3]; [7],48.0%
same,% Z,[3]; [7],52.0%
same,% E,[3]; [8],48.0%
same,% Z,[3]; [8],52.0%
same,% Z,"[3]; Initial E/Z 37/63, Buffer pH 2.2, Final pH 4, Time 0",37.1%
same,% E,[3]; [9],51.0%
same,% Z,[3]; [9],49.0%
same,% E,[3]; [10],56.8%
same,% Z,[3]; [10],43.2%
same,% E,[3]; [11],49.4%
same,% Z,[3]; [11],50.6%
same,% E,[3]; [12],49.0%
same,% Z,[3]; [12],51.0%
same,% E,[3]; [13],48.5%
same,% Z,[3]; [13],51.5%
same,% E,[3]; [14],62.9%
same,% Z,[3]; [14],37.1%
same,% E,[3]; [15],58.0%
same,% Z,[3]; [15],42.0%
same,% E,[3]; [16],61.1%
same,% Z,[3]; [16],38.9%
same,% E,[3]; [17],55.8%
same,% Z,[3]; [17],44.2%
same,% E,[3]; [18],52.0%
same,% Z,[3]; [18],48.0%
same,% E,[3]; [19],50.4%
same,% Z,[3]; [19],49.6%
same,% E,[3]; [20],62.5%
same,% Z,[3]; [20],37.5%
same,% E,[3]; [21],56.9%
same,% Z,[3]; [21],43.1%
same,% E,[3]; [22],60.6%
same,% Z,[3]; [22],39.4%
same,% E,[3]; [23],54.2%
same,% Z,[3]; [23],45.8%
same,% E,[3]; [24],50.8%
same,% Z,[3]; [24],49.2%
same,% E,[3]; [25],49.9%
same,% Z,[3]; [25],50.1%
same,% E,[3]; [26],62.7%
same,% Z,[3]; [26],37.3%
same,% E,[3]; [27],49.0%
same,% Z,[3]; [27],51.0%
same,% E,[3]; [28],48.5%
same,% Z,[3]; [28],51.5%
same,% E,[3]; [29],49.0%
same,% Z,[3]; [29],51.0%
same,% E,[3]; [30],48.8%
same,% Z,[3]; [30],51.2%
same,% E,[3]; [31],49.0%
same,% Z,[3]; [31],51.0%
same,% E,[3]; [32],63.4%
same,% Z,[3]; [32],36.6%
same,% E,[3]; [33],45.9%
same,% Z,[3]; [33],54.1%
same,% E,[3]; [34],29.0%
same,% Z,[3]; [34],71.0%
same,% E,[3]; [35],47.4%
same,% Z,[3]; [35],52.6%
same,% E,[3]; [36],48.0%
same,% Z,[3]; [36],52.0%
same,% E,[3]; [37],47.7%
same,% Z,[3]; [37],52.3%
same,% Z,"[3]; Initial E/Z 100/0, Buffer pH 2.2, Final pH 4, Time 0",100.0%
same,% E,[3]; [38],34.3%
same,% Z,[3]; [38],65.7%
same,% E,[3]; [39],12.5%
same,% Z,[3]; [39],87.5%
same,% E,[3]; [40],43.2%
same,% Z,[3]; [40],56.8%
same,% E,[3]; [41],48.1%
same,% Z,[3]; [41],51.9%
same,% E,[3]; [42],48.5%
same,% Z,[3]; [42],51.5%
same,% E,[3]; [43],0.0%
same,% Z,[3]; [43],100.0%
same,% E,[3]; [44],9.6%
same,% Z,[3]; [44],90.4%
same,% E,[3]; [45],2.9%
same,% Z,[3]; [45],97.1%
same,% E,[3]; [46],16.6%
same,% Z,[3]; [46],83.4%
same,% E,[3]; [47],31.3%
same,% Z,[3]; [47],68.6%
same,% E,[3]; [48],40.8%
same,% Z,[3]; [48],59.2%
same,% E,[3]; [49],0.0%
same,% Z,[3]; [49],100.0%
same,% E,[3]; [50],11.6%
same,% Z,[3]; [50],88.4%
same,% E,[3]; [51],3.4%
same,% Z,[3]; [51],96.6%
same,% E,[3]; [52],20.6%
same,% Z,[3]; [52],79.4%
same,% E,[3]; [53],36.4%
same,% Z,[3]; [53],63.6%
same,% E,[3]; [54],44.1%
same,% Z,[3]; [54],55.9%
same,% E,[3]; [55],0.0%
same,% Z,[3]; [55],100.0%
same,% E,[3]; [56],48.8%
same,% Z,[3]; [56],51.2%
same,% E,[3]; [57],48.3%
same,% Z,[3]; [57],51.7%
same,% E,[3]; [58],48.8%
same,% Z,[3]; [58],51.2%
same,% E,[3]; [59],48.8%
same,% Z,[3]; [59],51.2%
same,% E,[3]; [60],48.9%
same,% Z,[3]; [60],51.1%
same,% E,[3]; [61],0.0%
same,% Z,[3]; [61],100.0%
same,% E,"[3]; Initial E/Z ratios of 37/63, Buffer pH 2.2, Final pH 4, Time 0",62.9%
same,% E,"[3]; Initial E/Z ratios of 100/0, Buffer pH 2.2, Final pH 4, Time 0",0.0%
